In patent publication US11000033B2, “Ketone or oxime compound, and herbicide” (NISSAN CHEMICAL CORPORATION, priority 2014, dated 2021):

Experiments:
Type in all cases: in vivo
rice plant = assay: Test Example 5: effect on crop by foliage application, plastic box (symbol b); conditions: 320 g/ha, 3 weeks after application
Summary of the method: (§1)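 Box culture: sterile diluvial soil, seeds spot-sown, ~1.5 cm cover, raised under glass at 25–30° C.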

corn = assay: Test Example 5: effect on crop by foliage application, plastic box (symbol c); conditions: 320 g/ha, 3 weeks after application
Summary of the method: as §1

Setaria viridis = assay: Test Example 5: herbicidal effect by foliage application, plastic box (symbol G); conditions: 320 g/ha, 3 weeks after application
Summary of the method: (§2)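 After sowing into sterilized diluvial soil and growing two weeks under glass at 25° C. to 30° C., seedlings receive a uniform foliar spray of diluted emulsion. Damage is judged visually three weeks on.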

Digitaria ciliaris = assay: Test Example 5: herbicidal effect by foliage application, plastic box (symbol F); conditions: 320 g/ha, 3 weeks after application
Summary of the method: as §2

Monochoria vaginalis [1] = assay: Test Example 1: herbicidal activity, application before weed generation in submerged conditions (symbol C); conditions: application herbicide amount 320 g/ha
Summary of the method: (§3)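 Flooded alluvial soil (4 cm water) was mixed-sown with the three weed species, and 2.5-leaf rice seedlings were transplanted. On sowing day, a water-diluted emulsion at a predetermined rate was applied to the water surface. After 3 weeks in a 25–30 °C greenhouse, effect was scored 0–5.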

Abutilon theophrasti = assay: Test Example 5: herbicidal effect by foliage application, plastic box (symbol M); conditions: 320 g/ha, 3 weeks after application
Summary of the method: as §2

[2] = test system: Echinochloa crus-galli var. crus-galli; assay: Test Example 3: herbicidal effect by foliage application, Wagner pot (symbol H); conditions: application herbicide amount 320 g/ha
Summary of the method: (§4)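 Post-emergence, paddy-type test: seedlings 14 d old in shallow-flooded (0.1–0.5 cm) alluvial soil, 25–30 °C greenhouse. Emulsion diluted to target rate, sprayed on leaves. Read-out: visual effect on each species at 3 weeks, per set criteria.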

wheat = assay: Test Example 5: effect on crop by foliage application, plastic box (symbol e); conditions: 320 g/ha, 3 weeks after application
Summary of the method: as §1

[3] = test system: directly sowed rice plant; assay: Test Example 3: effect on crop by foliage application, Wagner pot (symbol b); conditions: application herbicide amount 320 g/ha
Summary of the method: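 Greenhouse culture at 25–30 °C of seeded rice, Cyperus difformis, Leptochloa chinensis and Echinochloa crus-galli var. crus-galli, in alluvial soil held under 0.1–0.5 cm of water in a Wagner pot.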

transplanted rice plant = assay: Test Example 1: effect on crop, application before weed generation in submerged conditions (symbol a); conditions: application herbicide amount 320 g/ha
Summary of the method: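 Alluvial soil pots flooded to 4 cm water, sown with Echinochloa oryzacola, Scirpus juncoides and Monochoria vaginalis, then transplanted with 2.5 leaf stage rice seedlings; pre-emergence application. Greenhouse 25° C. to 30° C.; scored 0–5 by herbicidal ratio 3 weeks after application.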

[4] = test system: Echinochloa oryzacola Vasing.; assay: Test Example 1: herbicidal activity, application before weed generation in submerged conditions (symbol A); conditions: application herbicide amount 320 g/ha
Summary of the method: as §3

Avena fatua = assay: Test Example 5: herbicidal effect by foliage application, plastic box (symbol I); conditions: 320 g/ha, 3 weeks after application
Summary of the method: as §2

[5] = test system: Echinochloa oryzacola Vasing.; assay: Test Example 2: herbicidal activity, application during weed generation in submerged conditions (symbol A); conditions: Table 23; application herbicide amount 320 g/ha; grade 0-5 by criteria of Test Example 1
Summary of the method: (§5)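 Steps: fill pots with alluvial soil; add water to 4 cm depth; co-sow the three weeds; grow at 25° C. to 30° C. under glass; at 1–2 leaves, dose the floodwater with diluted emulsion; rate damage visually after 3 weeks.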

Chenopodium album = assay: Test Example 5: herbicidal effect by foliage application, plastic box (symbol O); conditions: 320 g/ha, 3 weeks after application
Summary of the method: as §2

Cyperus difformis = assay: Test Example 3: herbicidal effect by foliage application, Wagner pot (symbol E); conditions: application herbicide amount 320 g/ha
Summary of the method: as §4

beet = assay: Test Example 5: effect on crop by foliage application, plastic box (symbol f); conditions: 320 g/ha, 3 weeks after application
Summary of the method: as §1

Galium spurium = assay: Test Example 5: herbicidal effect by foliage application, plastic box (symbol Q); conditions: 320 g/ha, 3 weeks after application
Summary of the method: as §2

Leptochloa chinensis = assay: Test Example 3: herbicidal effect by foliage application, Wagner pot (symbol D); conditions: application herbicide amount 320 g/ha
Summary of the method: as §4

Veronica persica = assay: Test Example 5: herbicidal effect by foliage application, plastic box (symbol R); conditions: 320 g/ha, 3 weeks after application
Summary of the method: as §2

Scirpus juncoides [6] = assay: Test Example 2: herbicidal activity, application during weed generation in submerged conditions (symbol B); conditions: Table 23; application herbicide amount 320 g/ha; grade 0-5 by criteria of Test Example 1
Summary of the method: as §5

[7] = test system: Echinochloa crus-galli var. crus-galli; assay: Test Example 5: herbicidal effect by foliage application, plastic box (symbol H); conditions: 320 g/ha, 3 weeks after application
Summary of the method: as §2

Alopecurus myosuroides = assay: Test Example 5: herbicidal effect by foliage application, plastic box (symbol J); conditions: 320 g/ha, 3 weeks after application
Summary of the method: as §2

Scirpus juncoides [8] = assay: Test Example 1: herbicidal activity, application before weed generation in submerged conditions (symbol B); conditions: application herbicide amount 320 g/ha
Summary of the method: as §3

rapeseed = assay: Test Example 5: effect on crop by foliage application, plastic box (symbol g); conditions: 320 g/ha, 3 weeks after application
Summary of the method: as §1

Apera spica-venti = assay: Test Example 5: herbicidal effect by foliage application, plastic box (symbol L); conditions: 320 g/ha, 3 weeks after application
Summary of the method: as §2

Monochoria vaginalis [9] = assay: Test Example 2: herbicidal activity, application during weed generation in submerged conditions (symbol C); conditions: Table 23; application herbicide amount 320 g/ha; grade 0-5 by criteria of Test Example 1
Summary of the method: as §5

Stellaria media = assay: Test Example 5: herbicidal effect by foliage application, plastic box (symbol P); conditions: 320 g/ha, 3 weeks after application
Summary of the method: as §2

Lolium multiflorum Lam. = assay: Test Example 5: herbicidal effect by foliage application, plastic box (symbol K); conditions: 320 g/ha, 3 weeks after application
Summary of the method: as §2

soybean = assay: Test Example 5: effect on crop by foliage application, plastic box (symbol d); conditions: 320 g/ha, 3 weeks after application
Summary of the method: as §1

Amaranthus retroflexus = assay: Test Example 5: herbicidal effect by foliage application, plastic box (symbol N); conditions: 320 g/ha, 3 weeks after application
Summary of the method: as §2

CON=C(C)CC1CC(O)=C(c2c(C)cc(C=Cc3ccccc3)cc2C)C1=O (stereo not drawn) [6-072]
b: directly sowed rice plant, effect on crop (criteria of Test Example 1) (rice plant): 2 (Herbicidal ratio of 20% or higher and lower than 40%) | c: corn, effect on crop (criteria of Test Example 1) (corn): 3 (Herbicidal ratio of 40% or higher and lower than 70%) | G: Setaria viridis, herbicidal effect (criteria of Test Example 1) (Setaria viridis): 4 (Herbicidal ratio of 70% or higher and lower than 90%) | F: Digitaria ciliaris, herbicidal effect (criteria of Test Example 1) (Digitaria ciliaris): 0 (Herbicidal ratio of 5% or lower (almost no effect)) | Herbicidal effect grade, C: Monochoria vaginalis (Monochoria vaginalis [1]): 0 (Herbicidal ratio of 5% or lower (almost no effect)) | M: Abutilon theophrasti, herbicidal effect (criteria of Test Example 1) (Abutilon theophrasti): 0 (Herbicidal ratio of 5% or lower (almost no effect)) | herbicidal effect on H (Echinochloa crus-galli var. crus-galli), grade 0-5 [2]: 5 (Herbicidal ratio of 90% or more (almost completely withered)) | e: wheat, effect on crop (criteria of Test Example 1) (wheat): 0 (Herbicidal ratio of 5% or lower (almost no effect)) | effect on crop b (directly sowed rice plant), grade 0-5 [3]: 0 (Herbicidal ratio of 5% or lower (almost no effect)) | Effect grade on crop, a: transplanted rice plant (transplanted rice plant): 0 (Herbicidal ratio of 5% or lower (almost no effect)) | Herbicidal effect grade, A: Echinochloa oryzacola Vasing. [4]: 4 (Herbicidal ratio of 70% or higher and lower than 90%) | I: Avena fatua, herbicidal effect (criteria of Test Example 1) (Avena fatua): 3 (Herbicidal ratio of 40% or higher and lower than 70%) | Herbicidal effect grade, A: Echinochloa oryzacola Vasing. [5]: 1 (Herbicidal ratio of 5% or higher and lower than 20%) | O: Chenopodium album, herbicidal effect (criteria of Test Example 1) (Chenopodium album): 0 (Herbicidal ratio of 5% or lower (almost no effect)) | herbicidal effect on E, grade 0-5 (Cyperus difformis): 0 (Herbicidal ratio of 5% or lower (almost no effect)) | f: beet, effect on crop (criteria of Test Example 1) (beet): 0 (Herbicidal ratio of 5% or lower (almost no effect)) | Q: Galium spurium, herbicidal effect (criteria of Test Example 1) (Galium spurium): 0 (Herbicidal ratio of 5% or lower (almost no effect)) | herbicidal effect on D (Leptochloa chinensis), grade 0-5 (Leptochloa chinensis): 5 (Herbicidal ratio of 90% or more (almost completely withered)) | R: Veronica persica, herbicidal effect (criteria of Test Example 1) (Veronica persica): 0 (Herbicidal ratio of 5% or lower (almost no effect)) | Herbicidal effect grade, B: Scirpus juncoides (Scirpus juncoides [6]): 0 (Herbicidal ratio of 5% or lower (almost no effect)) | H: Echinochloa crus-galli var. crus-galli, herbicidal effect (criteria of Test Example 1) [7]: 1 (Herbicidal ratio of 5% or higher and lower than 20%) | J: Alopecurus myosuroides, herbicidal effect (criteria of Test Example 1) (Alopecurus myosuroides): 0 (Herbicidal ratio of 5% or lower (almost no effect)) | Herbicidal effect grade, B: Scirpus juncoides (Scirpus juncoides [8]): 0 (Herbicidal ratio of 5% or lower (almost no effect)) | g: rapeseed, effect on crop (criteria of Test Example 1) (rapeseed): 0 (Herbicidal ratio of 5% or lower (almost no effect)) | L: Apera spica-venti, herbicidal effect (criteria of Test Example 1) (Apera spica-venti): 0 (Herbicidal ratio of 5% or lower (almost no effect)) | Herbicidal effect grade, C: Monochoria vaginalis (Monochoria vaginalis [9]): 0 (Herbicidal ratio of 5% or lower (almost no effect)) | P: Stellaria media, herbicidal effect (criteria of Test Example 1) (Stellaria media): 0 (Herbicidal ratio of 5% or lower (almost no effect)) | K: Lolium multiflorum Lam., herbicidal effect (criteria of Test Example 1) (Lolium multiflorum Lam.): 2 (Herbicidal ratio of 20% or higher and lower than 40%) | d: soybean, effect on crop (criteria of Test Example 1) (soybean): 0 (Herbicidal ratio of 5% or lower (almost no effect)) | N: Amaranthus retroflexus, herbicidal effect (criteria of Test Example 1) (Amaranthus retroflexus): 0 (Herbicidal ratio of 5% or lower (almost no effect))

CON=C(C)CC1CC(O)=C(c2c(C)cc(Oc3ccc(C(F)(F)F)cn3)cc2C)C1=O (mixture of isomers) [6-054]
b: directly sowed rice plant, effect on crop grade (rice plant): 3 (Herbicidal ratio of 40% or higher and lower than 70%) | c: corn, effect on crop grade (corn): 4 (Herbicidal ratio of 70% or higher and lower than 90%) | G: Setaria viridis, herbicidal effect grade (Setaria viridis): 5 (Herbicidal ratio of 90% or more (almost completely withered)) | F: Digitaria ciliaris, herbicidal effect grade (Digitaria ciliaris): 4 (Herbicidal ratio of 70% or higher and lower than 90%) | Herbicidal effect grade, C: Monochoria vaginalis (Monochoria vaginalis [1]): 0 (Herbicidal ratio of 5% or lower (almost no effect)) | M: Abutilon theophrasti, herbicidal effect grade (Abutilon theophrasti): 0 (Herbicidal ratio of 5% or lower (almost no effect)) | herbicidal effect on H (Echinochloa crus-galli var. crus-galli), grade 0-5 [2]: 5 (Herbicidal ratio of 90% or more (almost completely withered)) | e: wheat, effect on crop grade (wheat): 0 (Herbicidal ratio of 5% or lower (almost no effect)) | effect on crop b (directly sowed rice plant), grade 0-5 [3]: 5 (Herbicidal ratio of 90% or more (almost completely withered)) | Effect grade on crop, a: transplanted rice plant (transplanted rice plant): 2 (Herbicidal ratio of 20% or higher and lower than 40%) | Herbicidal effect grade, A: Echinochloa oryzacola Vasing. [4]: 1 (Herbicidal ratio of 5% or higher and lower than 20%) | I: Avena fatua, herbicidal effect grade (Avena fatua): 3 (Herbicidal ratio of 40% or higher and lower than 70%) | Herbicidal effect grade, A: Echinochloa oryzacola Vasing. [5]: 2 (Herbicidal ratio of 20% or higher and lower than 40%) | O: Chenopodium album, herbicidal effect grade (Chenopodium album): 4 (Herbicidal ratio of 70% or higher and lower than 90%) | herbicidal effect on E, grade 0-5 (Cyperus difformis): 3 (Herbicidal ratio of 40% or higher and lower than 70%) | f: beet, effect on crop grade (beet): 0 (Herbicidal ratio of 5% or lower (almost no effect)) | Q: Galium spurium, herbicidal effect grade (Galium spurium): 0 (Herbicidal ratio of 5% or lower (almost no effect)) | herbicidal effect on D (Leptochloa chinensis), grade 0-5 (Leptochloa chinensis): 5 (Herbicidal ratio of 90% or more (almost completely withered)) | R: Veronica persica, herbicidal effect grade (Veronica persica): 0 (Herbicidal ratio of 5% or lower (almost no effect)) | Herbicidal effect grade, B: Scirpus juncoides (Scirpus juncoides [6]): 1 (Herbicidal ratio of 5% or higher and lower than 20%) | H: Echinochloa crus-galli var. crus-galli, herbicidal effect grade [7]: 5 (Herbicidal ratio of 90% or more (almost completely withered)) | J: Alopecurus myosuroides, herbicidal effect grade (Alopecurus myosuroides): 5 (Herbicidal ratio of 90% or more (almost completely withered)) | Herbicidal effect grade, B: Scirpus juncoides (Scirpus juncoides [8]): 0 (Herbicidal ratio of 5% or lower (almost no effect)) | g: rapeseed, effect on crop grade (rapeseed): 1 (Herbicidal ratio of 5% or higher and lower than 20%) | L: Apera spica-venti, herbicidal effect grade (Apera spica-venti): 5 (Herbicidal ratio of 90% or more (almost completely withered)) | Herbicidal effect grade, C: Monochoria vaginalis (Monochoria vaginalis [9]): 0 (Herbicidal ratio of 5% or lower (almost no effect)) | P: Stellaria media, herbicidal effect grade (Stellaria media): 0 (Herbicidal ratio of 5% or lower (almost no effect)) | K: Lolium multiflorum Lam., herbicidal effect grade (Lolium multiflorum Lam.): 4 (Herbicidal ratio of 70% or higher and lower than 90%) | d: soybean, effect on crop grade (soybean): 0 (Herbicidal ratio of 5% or lower (almost no effect)) | N: Amaranthus retroflexus, herbicidal effect grade (Amaranthus retroflexus): 0 (Herbicidal ratio of 5% or lower (almost no effect))
